Here are results for 32 compounds from ChEMBL document CHEMBL6092217 (Eur J Med Chem, 2024).

SMILES strings stand for the structures.

The term IC50 denotes the concentration that gives 50% inhibition.

One experiment deals with RKO. Nature of the experiment: Antiproliferative activity against human RKO cells assessed as cell viability incubated for 72 hrs by MTT assay. It counts as functional, cell-based.
In another experiment the test system is MDA-MB-231. Nature of the experiment: cells. Particulars: Homo sapiens, MDA-MB-231, 72 h.
For the next experiment, the system named is HT-29. Nature of the experiment: Antiproliferative activity against human HT-29 cells assessed as cell viability incubated for 72 hrs by MTT assay. It counts as functional, cell-based. Particulars: HT-29, 72 h. (Tetrazolium assays rely on reduction of a dye to a coloured formazan, in cell work by metabolically active cells.)
A further experiment has as its system HepG2. Nature of the experiment: Antiproliferative activity against human HepG2 cells assessed as cell viability incubated for 72 hrs by MTT assay. Format: functional, cell-based. Particulars: HepG2, 72 h.
The next experiment concerns PC-3. Nature of the experiment: Antiproliferative activity against human PC-3 cells assessed as cell viability incubated for 72 hrs by MTT assay. Format: functional, cell-based. Particulars: PC-3, 72 h.
Another experiment concerns MCF7. Nature of the experiment: Antiproliferative activity against human MCF7 cells assessed as cell viability incubated for 72 hrs by MTT assay. Format: functional, cell-based. The conditions noted are these: MCF7, 72 h.

Description for MDA-MB-231: Antiproliferative activity against human MDA-MB-231 cells assessed as cell viability incubated for 72 hrs by MTT assay

`COc1ccc(N(C)c2nc(/C=C/c3cccc(F)c3)nc3ccccc23)cc1`: the IC50 with RKO turned out to be 170 nM; in the experiment on MDA-MB-231 it was 1250 nM; with HT-29, 160 nM; with HepG2 it was 240 nM; with PC-3, 90 nM; with MCF7 it was 260 nM.

As for `COc1ccc(/C=C/c2nc(N(C)c3ccc(OC)cc3)c3ccccc3n2)cc1`, the IC50 in the experiment on RKO came out at 940 nM; with MDA-MB-231 it was 1800 nM; with HT-29, 890 nM; in the experiment with HepG2, 4480 nM; in the experiment on PC-3 it was 2750 nM; with MCF7, 3660 nM.

With `COc1ccc(N(C)c2nc(/C=C/c3cccc(F)c3)nc3cccc(F)c23)cc1`, the half-inhibitory concentration (IC50) was 220 nM in the experiment with RKO; 430 nM with MDA-MB-231; 210 nM in the experiment with HT-29; 490 nM with HepG2; 400 nM with PC-3; 390 nM in the experiment with MCF7.

For `COc1cc(OC)cc(N(C)c2nc(/C=C/c3ccccc3)nc3ccccc23)c1`, the IC50 with RKO, in the experiment with MDA-MB-231, in the experiment on HT-29, in the experiment on HepG2, in the experiment with PC-3 and in the experiment on MCF7 was > 10000 nM each time.

Consider `CN(c1ccc(C(F)(F)F)cc1)c1nc(/C=C/c2ccccc2)nc2ccccc12`, for which the IC50 with RKO, with MDA-MB-231, in the experiment with HT-29, in the experiment on HepG2, in the experiment with PC-3 and in the experiment with MCF7 was > 10000 nM throughout.

`CN(c1ccccc1)c1nc(/C=C/c2ccccc2)nc2ccccc12`: the IC50 in the experiment on RKO, in the experiment with MDA-MB-231, in the experiment with HT-29, in the experiment on HepG2, in the experiment with PC-3 and in the experiment with MCF7 was > 10000 nM in each case.

On to `COc1ccc(N(C)c2nc(/C=C/c3cccc(OC)c3)nc3cccc(F)c23)cc1`, for which the IC50 with RKO is 150 nM; in the experiment on MDA-MB-231, 800 nM; in the experiment with HT-29 it was 240 nM; in the experiment on HepG2, 410 nM; in the experiment with PC-3, 360 nM; in the experiment on MCF7, 460 nM.

On to `COc1ccc(N(C)c2nc(/C=C/c3cccc(Cl)c3)nc3ccccc23)cc1`, for which the IC50 was 1370 nM in the experiment with RKO; 4170 nM with MDA-MB-231; 710 nM in the experiment with HT-29; 1730 nM in the experiment with HepG2; 2180 nM in the experiment on PC-3; 1060 nM in the experiment with MCF7.

`CN(c1ccc(OC(F)(F)F)cc1)c1nc(/C=C/c2ccccc2)nc2ccccc12`: the IC50 in the experiment on RKO, with MDA-MB-231, in the experiment on HT-29, in the experiment with HepG2, with PC-3 and in the experiment with MCF7 was > 10000 nM each time.

For `CN(c1ccc(F)cc1)c1nc(/C=C/c2ccccc2)nc2ccccc12`, the IC50 in the experiment on RKO was 540 nM; in the experiment on MDA-MB-231, 2850 nM; in the experiment on HT-29 it was 530 nM; in the experiment on HepG2 it was 910 nM; in the experiment on PC-3 it was 1110 nM; with MCF7, 1080 nM.

`COc1ccc(OC)c(N(C)c2nc(/C=C/c3ccccc3)nc3ccccc23)c1`: the half-maximal inhibitory concentration (IC50) in the experiment with RKO, in the experiment on MDA-MB-231, in the experiment on HT-29, with HepG2, in the experiment with PC-3 and with MCF7 was > 10000 nM each time.

`COc1ccc(N(C)c2nc(/C=C/c3ccc(OC)c(OC)c3OC)nc3ccccc23)cc1`: the IC50 was determined as 220 nM in the experiment on RKO; 600 nM in the experiment on MDA-MB-231; 170 nM with HT-29; 530 nM with HepG2; 490 nM in the experiment with PC-3; 410 nM in the experiment with MCF7.

As to `CN(c1ccc2c(c1)OCCO2)c1nc(/C=C/c2ccccc2)nc2ccccc12`, the IC50 was 410 nM in the experiment with RKO; 2060 nM in the experiment with MDA-MB-231; 670 nM with HT-29; 3440 nM with HepG2; 1460 nM in the experiment on PC-3; 320 nM in the experiment on MCF7.

For the compound `COc1ccc(N(C)c2nc(/C=C/c3ccccc3)nc3ccccc23)cc1`, the IC50 amounted to 250 nM in the experiment with RKO; 1360 nM in the experiment with MDA-MB-231; 250 nM in the experiment on HT-29; 1190 nM in the experiment with HepG2; 340 nM with PC-3; 230 nM in the experiment on MCF7.

As to `COc1ccc(N(C)c2nc(/C=C/c3cccc(F)c3)nc3ccc(F)cc23)cc1`, the half-maximal inhibitory concentration (IC50) in the experiment on RKO turned out to be 620 nM; in the experiment on MDA-MB-231, 2520 nM; in the experiment with HT-29, 460 nM; with HepG2, 730 nM; in the experiment on PC-3, 360 nM; in the experiment with MCF7, 340 nM.

Turning to `CN(c1ccc2c(c1)OCO2)c1nc(/C=C/c2ccccc2)nc2ccccc12`, the IC50 in the experiment with RKO worked out at 720 nM; in the experiment with MDA-MB-231, 3680 nM; with HT-29 it was 2790 nM; with HepG2, 1140 nM; in the experiment on PC-3, 1070 nM; in the experiment on MCF7, 1640 nM.

For `COc1ccc(N(C)c2nc(/C=C/c3cc(OC)c(OC)c(OC)c3)nc3ccccc23)cc1`, the IC50 in the experiment with RKO was > 10000 nM; with MDA-MB-231, > 10000 nM; in the experiment on HT-29, > 10000 nM; in the experiment on HepG2, > 10000 nM; in the experiment on PC-3 it was 8340 nM; in the experiment with MCF7, > 10000 nM.

Turning to `COc1ccc(N(C)c2nc(/C=C/c3cccc(F)c3)nc3cccnc23)cc1`, the IC50 with RKO amounted to 510 nM; in the experiment with MDA-MB-231, 2880 nM; in the experiment on HT-29, 200 nM; with HepG2, 680 nM; in the experiment on PC-3, 330 nM; with MCF7, 1180 nM.

As to `COc1ccc(N(C)c2nc(/C=C/c3cccc(Cl)c3Cl)nc3ccccc23)cc1`, the concentration for half-maximal inhibition (IC50) in the experiment on RKO is 5750 nM; in the experiment on MDA-MB-231 it was > 10000 nM; in the experiment on HT-29, 1420 nM; in the experiment with HepG2, > 10000 nM; in the experiment with PC-3, 2990 nM; with MCF7 it was > 10000 nM.

Consider `COc1cccc(OC)c1N(C)c1nc(/C=C/c2ccccc2)nc2ccccc12`, for which the IC50 in the experiment on RKO, in the experiment with MDA-MB-231, with HT-29, with HepG2, in the experiment with PC-3 and in the experiment with MCF7 was > 10000 nM throughout.

`CN(c1ccc2occc2c1)c1nc(/C=C/c2ccccc2)nc2ccccc12`: the IC50 with RKO turned out to be 1590 nM; in the experiment with MDA-MB-231, 6570 nM; with HT-29, 2840 nM; with HepG2 it was 4000 nM; in the experiment on PC-3 it was 7410 nM; with MCF7, 2560 nM.

Regarding `COc1ccc(N(C)c2nc(/C=C/c3ccc(Cl)cc3)nc3ccccc23)cc1`, the IC50 was determined as 460 nM in the experiment with RKO; 830 nM with MDA-MB-231; 310 nM with HT-29; 940 nM with HepG2; 620 nM in the experiment on PC-3; 610 nM in the experiment with MCF7.

Turning to `COc1ccc(N(C)c2nc(/C=C/c3ccc(OC)c(OC)c3)nc3ccccc23)cc1`, the IC50 with RKO is 2730 nM; in the experiment with MDA-MB-231, 7240 nM; with HT-29 it was 2010 nM; in the experiment on HepG2, 2740 nM; in the experiment with PC-3, 1460 nM; in the experiment with MCF7, 3500 nM.

For the compound `COc1ccc(N(C)c2nc(/C=C/c3ccc(Cl)cc3Cl)nc3ccccc23)cc1`, the IC50 is 1760 nM with RKO; > 10000 nM in the experiment on MDA-MB-231; 4750 nM in the experiment with HT-29; > 10000 nM in the experiment with HepG2; 1450 nM in the experiment on PC-3; > 10000 nM with MCF7.

Turning to `COc1ccc(N(C)c2nc(/C=C/c3ccc([N+](=O)[O-])cc3)nc3ccccc23)cc1`, the IC50 in the experiment on RKO came to 4270 nM; with MDA-MB-231, 9480 nM; in the experiment with HT-29, 3240 nM; in the experiment with HepG2, 7010 nM; in the experiment with PC-3, 2850 nM; in the experiment on MCF7, 5610 nM.

On to `COc1ccc(N(C)c2nc(/C=C/c3cccc([N+](=O)[O-])c3)nc3ccccc23)cc1`, for which the IC50 was determined as 490 nM with RKO; 810 nM with MDA-MB-231; 300 nM with HT-29; 540 nM in the experiment with HepG2; 410 nM in the experiment with PC-3; 1470 nM with MCF7.

Consider `COc1ccc(N(C)c2nc(/C=C/c3ccccc3)nc3ccccc23)cc1OC`, for which the half-inhibitory concentration (IC50) with RKO came to 630 nM; in the experiment on MDA-MB-231 it was 7030 nM; with HT-29, 540 nM; with HepG2, 2840 nM; in the experiment on PC-3, 2850 nM; in the experiment with MCF7 it was 2050 nM.

As to `COc1ccc(N(C)c2nc(/C=C/c3ccccc3)nc3ccccc23)c(OC)c1`, the IC50 with RKO was found to be 650 nM; in the experiment on MDA-MB-231 it was 5730 nM; with HT-29 it was 750 nM; in the experiment on HepG2, 8220 nM; in the experiment with PC-3, 2750 nM; in the experiment with MCF7 it was 1900 nM.

For the compound `O=c1[nH]cc(F)c(=O)[nH]1` [FLUOROURACIL], the IC50 in the experiment with RKO, in the experiment with MDA-MB-231, in the experiment on HT-29, in the experiment on HepG2, in the experiment with PC-3 and in the experiment with MCF7 was > 10000 nM in each case.

As to `COc1ccc(N(C)c2nc(/C=C/c3cccc(OC)c3)nc3ccc(F)cc23)cc1`, the IC50 amounted to 240 nM with RKO; 1060 nM with MDA-MB-231; 280 nM in the experiment with HT-29; 360 nM in the experiment with HepG2; 650 nM in the experiment with PC-3; 800 nM in the experiment with MCF7.

`COc1ccc(N(C)c2nc(/C=C/c3ccc(C)cc3)nc3ccccc23)cc1`: the IC50 with RKO worked out at 1710 nM; in the experiment with MDA-MB-231, 2560 nM; with HT-29, 460 nM; with HepG2, 3010 nM; in the experiment with PC-3, 460 nM; in the experiment with MCF7, 3110 nM.

For the compound `COc1ccc(N(C)c2nc(C)nc3ccccc23)cc1` [VERUBULIN], the IC50 in the experiment with RKO was 9 nM; in the experiment with MDA-MB-231, 23 nM; in the experiment on HT-29 it was 7 nM; in the experiment with HepG2 it was 13 nM; in the experiment on PC-3, 10 nM; in the experiment with MCF7, 14 nM.
